Test results published in US20070078092A1, “Cell permeable conjugates of peptides for inhibition of protein kinases” (priority 2003, published 2007).
Counter-ions that a name gives are not always drawn. Like-named read-outs stand apart in the source and are kept apart here. Each block holds one compound with its values, some of them ahead of it.

How the values were obtained:
[1] = test system: prostate cancer cell lines; assay: Growth inhibition assay, combination with chemotherapeutic agents
Experimental: The chemotherapeutic agents used are: Mitoxantrone hydrochloride (Novantrone, Wyeth Lederle S.p.A. Catania, Italy) supplied as a sterile aqueous solution of 3.8 mM. Doxorubicin, Etoposide and Vinblastine sulfate salt (Sigma) were dissolved in 100% DMSO to prepare stock solutions at concentration of 10 mM. Docetaxel (Taxpter, Aventis) stock solution of 11.6 mM in polysorbate 80. These agents were diluted in medium just before use for in vitro studies.
Cells were incubated for five days in the present of the drugs followed by fixation and staining of cells with methylene blue.

PKB = biological target: T1, PKB (Homo sapiens, UniProt P31749); assay: PKB in vitro kinase activity assay; format: biochemical
T1 construct: His; HA; made in house
T1 sequence (P31749 whole entry, species assumed): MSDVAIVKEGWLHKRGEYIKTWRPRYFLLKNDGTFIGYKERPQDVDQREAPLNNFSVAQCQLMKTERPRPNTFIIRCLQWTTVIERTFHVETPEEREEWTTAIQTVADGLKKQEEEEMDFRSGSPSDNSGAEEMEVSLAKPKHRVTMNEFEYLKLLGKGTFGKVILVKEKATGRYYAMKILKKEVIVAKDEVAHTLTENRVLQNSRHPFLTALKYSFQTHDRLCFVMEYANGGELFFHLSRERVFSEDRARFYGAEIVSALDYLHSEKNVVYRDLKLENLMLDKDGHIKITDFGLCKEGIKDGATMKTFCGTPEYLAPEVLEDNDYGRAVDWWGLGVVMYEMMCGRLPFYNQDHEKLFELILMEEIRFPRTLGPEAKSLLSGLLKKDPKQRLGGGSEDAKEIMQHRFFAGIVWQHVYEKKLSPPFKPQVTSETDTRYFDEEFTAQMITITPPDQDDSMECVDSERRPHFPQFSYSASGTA

PC3 cells = assay: Growth inhibition assay in PC3 cells; format: cell-based, human; settings: 50 μM
Description: (§1) Several cancer cell lines were used to determine the activity of PKB inhibitor compounds in intact cells. The human prostate carcinoma cell lines, PC-3 and LNCaP. The human acute T cells leukemia cell line, Jurkat. Human breast carcinoma cell lines: MCF-7 and MDA468 and renal adenocarcinoma cell 786-O. LNCaP,MDA468, 786-O and Jurkat cell lines express high basal level of activated PKB. PC-3 expresses moderate level of activated PKB. MCF-7 expresses low but inducible level of activated PKB. Control cells are PBLs, normal peripheral blood lymphocytes which obtained from normal donors (blood bank) and MCF10F which is a non tumorogenic breast cell line. […]
(§2) Cells were fixed by 0.5% glutardialdehyde followed by staining with 1% methylene blue in borate buffer (Sigma) for one hour. […] Quantitation of color intensity was performed by measurement of the optical density at 600 nm by ELISA reader. […]
(§3) At the appropriate time in culture 1uci of 3H-thymidine (stock of 5 Ci/mmole, Amersham) was added to each well containing 100 μl of medium for 5 hours. […] The radioactivity was counted using microplate counter, Packard TopCount.
(§4) Fifty percent inhibitory concentration (IC50) values were calculated using nonlinear regression in one site competition model with GraphPad Prism version 3.03 Windows (GraphPad Software, San Diego, USA)

LNCaP cells = assay: Growth inhibition assay in LNCaP cells; format: cell-based, human; settings: Table 3, assay B2
Description: as §1, §2, §3, §4

[2] = test system: prostate cancer cell lines; assay: Cell death and apoptosis in prostate cancer cell lines; format: cell-based, human
Description: (§5) Several cancer cell lines were used to determine the activity of PKB inhibitor compounds in intact cells. The human prostate carcinoma cell lines, PC-3 and LNCaP. The human acute T cells leukemia cell line, Jurkat. Human breast carcinoma cell lines: MCF-7 and MDA468 and renal adenocarcinoma cell 786-O. LNCaP,MDA468, 786-O and Jurkat cell lines express high basal level of activated PKB. PC-3 expresses moderate level of activated PKB. MCF-7 expresses low but inducible level of activated PKB. Control cells are PBLs, normal peripheral blood lymphocytes which obtained from normal donors (blood bank) and MCF10F which is a non tumorogenic breast cell line. The control cells are used to compare the effect of the protein kinase inhibitors on the tested cancer cells and the normal cells.
Peptide conjugates, which are active in enzyme inhibition assays were tested in cells for induction of apoptosis of cancer cell lines. Apoptosis was assayed at least by two methods in each cell line. Cells were seeded at the appropriate plates for each method, treated with or without the inhibitory compounds for different time points and analyzed by one of the below methods.
Table 9 represents the cell death induced by the protein kinase inhibitors in prostate cancer cell lines vs. normal cells. […]

PC3 tumor xenograft [3] = assay: Efficacy study in mice bearing PC3 tumor, IT injection; format: in vivo; settings: high dose (3.3 mg/kg), every other day, second week, FIG. 8
Experimental: C2. Efficacy Study in Mice Bearing PC3 Tumor
a. PC3 cells ([…]) were injected subcutaneously in matrigel, into hip area of Nude male mice (Harlan Co., Israel). Tumor size was determined by caliper using the formula: Length ×(width^2)×0.4. The tumors were allowed to grow to volume of about 50 mm 3 before the treatment was started. The appropriate doses of compounds were injected subcutaneously into the region surrounding the tumors (IT injection). The treatment was given 3 times a week; every other day for two weeks, and the tumor size was measured once every two days.
The high safety of PTR 6164 allows a very large therapeutic window. The conjugates were further tested in vivo in efficacy studies as described in C2 above: • a. The peptides were injected every other day, at the tumor area. After 3 injections, an indicative tendency of reduction in tumor size was observed.

PC3 tumor xenograft [4] = assay: Efficacy study in mice bearing PC3 tumor, systemic administration; format: in vivo
Experimental: b. Human prostatic PC-3 cancer cells are grafted subcutaneously in 5 weeks old male nude Balb/c mice of approximately 20 g. Each mouse will receive 2.5×10^6cells at Day 0. Intraperitoneal (i.p.) treatment is initiated when tumour volume reaches approximately 50 mm^3. I.p. administration is highly acceptable in preliminary experiments, and exemplifies the stability in the blood and liver, and the distribution through the blood into the tumor. The control groups is treated with the vehicle 10% DMSO -90% 2-hydroxypropyl-beta-cyclodextrin at 1×10^−2M in sterile saline. Tumour volume measurements with callipers (equation=length×width^2×0.4) and body weights are recorded 3 times weekly on Mondays, Wednesdays and Fridays. Mice are monitored twice daily for general health status. Mice are sacrificed when the tumour mass in the respective vehicle treated groups reaches approximately 20% of the body weight or if this should not be obtained, 3 weeks after the end of the treatment. At the end of the experiment, the tumours of the 3 first sacrificed mice in each group are collected and embedded in paraffin blocks for further histological examination. The remaining tumours are collected and frozen in liquid nitrogen for western blot analysis.
Although the peptide dose was 3.3 mg/kg the MTD for this compound is 40 times higher, indicating a high therapeutic index. • b. Two concentrations were tested, 66 mg/kg and 33 mg/kg, which are 0.5 and 0.25 of the MTD. The relatively high doses were selected because we had no previous knowledge on the pharmacokinetics of the compound, and we wanted to obtain maximum effect, although we expected that toxic effects might occur as a result of the high dosing.
The compounds were dissolved in a solution of 10% DMSO/90% cyclodextrin in physiological saline. Six groups of 9 mice in each were tested. Two groups received the compound i.v, every 48 hours, and two groups received it daily, by i.p. injection. Treatment started at 7 days post graft, lasted for 21 days, followed by a 14-day observation period. The experiment consisted four experimental groups as in table 7:
It is clear that the effect of the inhibitors was very significant, despite the aggressiveness of the tumors.
Three tumors from each group were studies and a clear trend of increased apoptosis is observed in the treated tumors, implying induction of apoptosis through inhibition of PKB. Tumors were collected after the 14 days observation period in which no treatment was given, indicating long-term effect. The ratio between apoptosis to mitoses in tumor sections express the viability of the tumor. In a viable tissue mitotic process are dominant and apoptosis is minor while in dying tissue this ratio is reversed. […]

[5] = test system: PKB downstream substrates GSK3 and FKHR; assay: Inhibition of phosphorylation of PKB downstream substrates (Western blot); format: cell-based, human; settings: cancer cells
Experimental: B3. Inhibition of Phosphorylation of PKB and Downstream Substrates:
Peptide conjugates identified as inhibitors of PKB were further tested in cells for their ability to inhibit the phosphorylation of several PBK downstream substrates. The substrate GSK3 is associated with cell metabolism and cell cycle. Forkhead (FKHR) is directly associated with apoptosis. Inhibitory activity in these assays indicates also that the positive compounds penetrate into the cells.
Cells (2×10^6) were seeded in 25 cm^2 flasks grown for 2 days at normal medium conditions. Inhibitory compounds were added for 24 hrs and analyzed for their effect on PKB phosphorylation at Ser473 residue and on the phosphorylation of specific substrates of PKB, GSK3 and FKHR. At the end of the treatment cells were lysed using lysis buffer (20 mM Tris-HCl pH 7.4, 150 mM NaCl, 0.5% Triton-x100, 25 mM NaF, 2 mM AEBSF, 1 mM sodium orthovanadate, 10 mM β-glycerophosphate, 1 μg/ml aprotonin and 5 μg/ml leupeptin). Equal amounts of cell protein were resolved by 10% SDS-PAGE and electroblotted to PVDF membranes. Western blot analysis was performed using antibodies against phospho-Akt1 (Ser473), phospho-GSK3α (Ser21) and phosphor-FKHR (Thr24), which were obtained from Cell Signaling Technology and against Akt1 (Upstate), GSK3α (Transduction Laboratories), and FKHR (Cell Signaling Technology).

[6] = test system: Prostate cancer PC3 and LNCaP, T-cell leukemia Jurkat, and breast cancer MCF-7; assay: Cellular activity in the relevant cancer cell lines; format: cell-based, human
Description: as §5
Selected peptide conjugates, which were found active in the enzyme-inhibition assays were screened for their ability to inhibit growth of tumor cell lines. Screening for inhibitory compounds was done, initially, at concentration of 50 μM. Active compounds from the first screening were further tested at different concentrations (50, 25, 12.5, 6.25, 3.125 and 1.56 μM) in order to determine their IC50. Growth inhibition was tested using two methods: A. staining of viable cells with methylene blue, B. incorporation of ^3H-thymidine. For both methods cells were grown in 96-well plates: LNCaP, 5000 cell per well for 72 hours, PC3, 5000 cells per well for 48 hours Jurkat, MDA468, and 786-O, 2500, 5000 and 1000 cells per well respectively for 24 hours, before tested compounds were added. The assays were done in triplicates for one to six days.
In addition, some of the new conjugates were also 10-20 times selective for PKB over PKA in contrast to previously described chimeric compounds. • 1. […] From the peptide transporter conjugates, 96 compounds were tested all were very active in the in-vitro kinase assay and very selective 10-50 fold, however only few were active in cells. The selected 6 active conjugates show 8-20 μM activity in cells.

[7] = 120 h, read-out: IC50 of chemotherapeutic agent alone
[8] = read-out: IC50 of chemotherapeutic agent +PTR 6320, combined with 1.5 μM of PTR 6320, five days, methylene blue
[9] = i.p. 33 mg/kg, tumors collected after the 14 days observation period

IC50 [1, 7]: 0.6 nM
IC50 [1, 8]: 0.03 nM
Compound: CC(=O)O[C@@]12CO[C@@H]1C[C@H](O)[C@@]1(C)C(=O)[C@H](O)C3=C(C)[C@@H](OC(=O)[C@H](O)[C@@H](NC(=O)OC(C)(C)C)c4ccccc4)C[C@@](O)([C@@H](OC(=O)c4ccccc4)[C@H]21)C3(C)C [Docetaxel]

IC50 [1, 7]: 13 nM
IC50 [1, 8]: 1.1 nM
Compound: COc1cccc2c1C(=O)c1c(O)c3c(c(O)c1C2=O)C[C@@](O)(C(=O)CO)C[C@@H]3O[C@H]1C[C@H](N)[C@H](O)[C@H](C)O1 [Doxorubicine, Doxorubicin]

IC50 [1, 7]: 300 nM
IC50 [1, 8]: 17 nM
Compound: COc1cc([C@@H]2c3cc4c(cc3[C@@H](O[C@@H]3O[C@@H]5CO[C@@H](C)O[C@H]5[C@H](O)[C@H]3O)[C@H]3COC(=O)[C@H]23)OCO4)cc(OC)c1O [Etoposide]

Compound: O=C1c2c(O)ccc(O)c2C(=O)c2c(NCCNCCO)ccc(NCCNCCO)c21 [Mitoxantrone, Mitoxantrone hydrochloride]
IC50 [1, 7]: 3.4 nM
IC50 [1, 8]: ~0.36 nM

IC50 [1, 7]: 2.2 nM
IC50 [1, 8]: 0.1 nM
Compound: CC[C@]1(O)C[C@@H]2CN(CCc3c([nH]c4ccccc34)[C@@](C(=O)OC)(c3cc4c(cc3OC)N(C)[C@H]3[C@@](O)(C(=O)OC)[C@H](OC(C)=O)[C@]5(CC)C=CCN6CC[C@]43[C@@H]65)C2)C1 [Vinblastine]

% Inhibition PKB activity (PKB; 1 μM): 95%
% Inhibition PKB activity (PKB; 10 μM): 97%
Compound: Ahx6-DArg-DArg-DArg-DArg-DGln-DArg-DArg-DLys-DLys-DArg-6154 [Peptide AB60025-54]

Compound: Arg-Gln-Ile-Lys-Ile-Trp-Phe-Gln-Asn-Arg-Arg-Met-Lys-Trp-Lys-Lys-6154 [Peptide AB60025-2]
% Inhibition PKB activity (PKB; 1 μM): 60%
% Inhibition PKB activity (PKB; 10 μM): 92%
% Inhibition PC3 growth (PC3 cells): 60%
IC50 (LNCaP cells): < 12500 nM

Compound: Arg-Gln-Ile-Lys-Ile-Trp-Phe-Gln-Asn-Arg-Arg-Met-Lys-Trp-Lys-Lys-6184 [Peptide AB60025-4]
% Inhibition PKB activity (PKB; 1 μM): 80%
% Inhibition PKB activity (PKB; 10 μM): 96%
% Inhibition PC3 growth (PC3 cells): 52%
IC50 (LNCaP cells): 10000 nM

Compound: Cholesteryl-O—CO-(DLys)3-Arg-Pro-Arg-Nva-Tyr-Dap-Hol-NH2 [PTR 6320]
improved in vitro selectivity in comparison to PTR 6164 (PKB; protein kinase B vs. protein kinase A, FIG. 11): about 20 times
concentration inducing apoptosis in cancer cells ([2]; cancer cells): 3 µM
efficacy / potency in cellular assays relative to PTR 6164 ([2]; compared with prototype PTR 6164): five times better efficacy

Compound: Cholesteryl-O—CO-Arg-Pro-Arg-Nva-Tyr-Dap-Hol-NH2 [PTR 6164]
tumor regression after injection at the tumor area (PC3 tumor xenograft [3]): four out of five animals showed complete regression of the tumor
effect on tumor growth (PC3 tumor xenograft [4]; daily i.p. injections, 66 mg/kg and 33 mg/kg, 21 days): significant inhibition of tumor growth
Apoptosis in tumor sections (PC3 tumor xenograft [4]; [9]): 5.6
Mitoses in tumor sections (PC3 tumor xenograft [4]; [9]): 3.4
effect on tumor size (PC3 tumor xenograft [4]; injections every 48 hours (i.v.), 66 mg/kg and 33 mg/kg): no effect on the tumor size
phosphorylation of GSK3 and FKHR [5]: decreases the phosphorylation of GSK3 and FKHR
cellular activity [6]: 12 µM

Compound: Myristyl-Gly-Arg-Pro-Arg-Nva-Tyr-Dap-Hol-NH2 [PTR 6180]
cellular activity [6]: 25 to 50 µM

Compound: Vitamin E succinate-Arg-Pro-Arg-Nva-Tyr-Dap-Hol-NH2 [PTR 6244]
cellular activity [6]: 15 to 20 µM
